The record followed here is patent publication US9663528B2, “Substituted 1,2,3,4,6,8,12,12a-octahydro-1,4-methanodipyrido[1,2-a:1',2'-d]pyrazines and methods for treating viral infections” (priority 2012, dated 2017).

The term Emax denotes the size of the effect at its maximum, as opposed to the concentration needed.

Read-outs that look alike come from different tables or passages of the source.

A short description of one data set: in vitro. To be noted: human. The method, then:
For the antiviral assay utilizing MT4 cells, 0.4 μL of […] test concentration of 3-fold serially diluted compound in DMSO was added to 40 μL of cell growth medium (RPMI 1640, 10% FBS, 1% penicilline/Streptomycine, 1% L-Glutamine, 1% HEPES) in each well of 384-well assay plates (10 concentrations) in quidruplicate.
1 mL aliquots of 2×10^6 MT4 cells are pre-infected for 1 and 3 hours respectively at 37° C. with 25 μL (MT4) or of either cell growth medium (mock-infected) or a fresh 1:250 dilution of an HIV-IIIb concentrated ABI stock (0.004 m.o.i. for MT4 cells). Infected and uninfected cells are diluted in cell growth medium and 35 μL of 2000 (for MT4) cells is added to each well of the assay plates.
Assay plates were then incubated in a 37° C. incubator. After 5 days of incubation, 25 μL of 2× concentrated CellTiter-Glo™ Reagent (catalog #G7573, Promega Biosciences, Inc., Madison, Wis.) was added to each well of the assay plate. Cell lysis was carried out by incubating at room temperature for 2-3 minutes, and then chemiluminescence was read using the Envision reader (PerkinElmer).

In a further data set the target is PXR (Homo sapiens (Human), UniProt O75469). The experiment in a line: Human PXR activation assay (luciferase reporter gene assay, DPX2 cells). The data set is classed as cell-based. To be noted: human. How it is done:
A stably transformed tumor cell line (DPX2) was plated on 96-well microtiter plates. DPX2 cells harbor the human PXR gene (NR112) and a luciferase reporter gene linked to two promoters identified in the human CYP3A4 gene, namely XREM and PXRE. […] The number of viable cells was determined and the reporter gene activity was assessed. Positive control: […]
In general terms: A reporter such as luciferase makes a cellular process visible.

Sequence of PXR (O75469 whole entry): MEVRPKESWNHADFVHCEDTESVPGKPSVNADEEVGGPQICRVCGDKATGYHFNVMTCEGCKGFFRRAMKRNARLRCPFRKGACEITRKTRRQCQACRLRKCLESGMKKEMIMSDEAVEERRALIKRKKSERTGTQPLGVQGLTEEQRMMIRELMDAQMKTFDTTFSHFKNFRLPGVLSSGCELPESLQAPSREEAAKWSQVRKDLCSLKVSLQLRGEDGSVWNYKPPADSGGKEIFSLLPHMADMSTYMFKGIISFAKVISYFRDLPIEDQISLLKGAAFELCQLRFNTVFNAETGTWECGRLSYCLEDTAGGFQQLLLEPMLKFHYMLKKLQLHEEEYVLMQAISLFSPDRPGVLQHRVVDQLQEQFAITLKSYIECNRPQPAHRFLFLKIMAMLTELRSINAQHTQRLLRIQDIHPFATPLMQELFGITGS

For the compound `O=C(NC1(c2ccc(F)cc2F)CCCC1)c1cn2c(c(O)c1=O)C(=O)N1C(C2)O[C@H]2CC[C@@H]1C2` (stereo partly drawn) [Compound 33, (2S,5R)-N-(1-(2,4-difluorophenyl)cyclopentyl)-8-hydroxy-7,9-dioxo-2,3,4,5,7,9,13,13a-octahydro-2,5-methanopyrido[1′,2′:4,5]pyrazino[2,1-b][1,3]oxazepine-10-carboxamide], in “in vitro” (CC50 nM in MT-4), the CC50 at 5 days turned out to be 3970 nM. The maximum response (Emax) at 24 h, 15 µM on PXR was found to be 17%.

`C[C@H]1CO[C@@H]2Cn3cc(C(=O)NC4(c5ccc(F)cc5F)CC4)c(=O)c(O)c3C(=O)N12` [Compound 37, (3S,11aR)-N-(1-(2,4-difluorophenyl)cyclopropyl)-6-hydroxy-3-methyl-5,7-dioxo-2,3,5,7,11,11a-hexahydrooxazolo[3,2-a]pyrido[1,2-d]pyrazine-8-carboxamide] registered a CC50 at 5 days in “in vitro” (MT-4 cells, mock-infected, CC50 nM in MT-4, MT-4 cells, 5 days incubation) of 19500 nM. The Emax at 24 h, 15 µM at PXR (15 μM, relative to maximum fold induction by 10 or 20 μM rifampicin, DPX2 cells, 24 hours, read-out: % Emax at 15 μM) was determined as 2%.

With `C[C@@H](NC(=O)c1cn2c(c(O)c1=O)C(=O)N1[C@H]3CC[C@H](C3)[C@@H]1C2)c1ccc(F)cc1F` [Compound 43, (12aR)-N—((R)-1-(2,4-difluorophenyl)ethyl)-7-hydroxy-6,8-dioxo-1,2,3,4,6,8,12,12a-octahydro-1,4-methanodipyrido[1,2-a:1′,2′-d]pyrazine-9-carboxamide], the CC50 at 5 days in the data set “in vitro” (CC50 nM in MT-4) came out at 10300 nM. The Emax at 24 h, 15 µM on PXR is 18%.

Consider `O=C(NCc1ccc(F)c(F)c1F)c1cn2c(c(O)c1=O)C(=O)N1[C@@H]3CC[C@@H](C3)O[C@H]1C2` [Compound 44, (13aS)-8-hydroxy-7,9-dioxo-N-(2,3,4-trifluorobenzyl)-2,3,4,5,7,9,13,13a-octahydro-2,5-methanopyrido[1′,2′:4,5]pyrazino[2,1-b][1,3]oxazepine-10-carboxamide], for which, in “in vitro” (CC50 nM in MT-4), the CC50 at 5 days is 9870 nM. In addition, at PXR, the Emax at 24 h, 15 µM came out at 4%.

`O=C(NCc1c(F)cccc1F)c1cn2c(c(O)c1=O)C(=O)N1[C@@H]3CC[C@@H](C3)O[C@H]1C2` [Compound 46, (13aS)-N-(2,6-difluorobenzyl)-8-hydroxy-7,9-dioxo-2,3,4,5,7,9,13,13a-octahydro-2,5-methanopyrido[1′,2′:4,5]pyrazino[2,1-b][1,3]oxazepine-10-carboxamide] gave a CC50 at 5 days in “in vitro” (CC50 nM in MT-4) of 19300 nM. At PXR, this compound had a maximum response (Emax) at 24 h, 15 µM of 34%.

For the compound `O=C(N[C@@H](c1ccc(F)cc1F)C(F)(F)F)c1cn2c(c(O)c1=O)C(=O)N1C(C2)O[C@@H]2CC[C@H]1C2` (stereo partly drawn) [Compound 54, (2R,5S)-N—((S)-1-(2,4-difluorophenyl)-2,2,2-trifluoroethyl)-8-hydroxy-7,9-dioxo-2,3,4,5,7,9,13,13a-octahydro-2,5-methanopyrido[1′,2′:4,5]pyrazino[2,1-b][1,3]oxazepine-10-carboxamide], the CC50 at 5 days in the data set “in vitro” (CC50 nM in MT-4) stood at 3240 nM. Moreover, the Emax at 24 h, 15 µM at PXR turned out to be 2%.

Turning to `O=C(NCc1c(F)cc(F)cc1F)c1cn2c(c(O)c1=O)C(=O)N1[C@@H]3C[C@H]([C@@H]1C2)C(F)(F)C3` [Compound 57, (1R,4R,12aR)-2,2-difluoro-7-hydroxy-6,8-dioxo-N-(2,4,6-trifluorobenzyl)-1,2,3,4,6,8,12,12a-octahydro-1,4-methanodipyrido[1,2-a:1′,2′-d]pyrazine-9-carboxamide], in the data set “in vitro” (CC50 nM in MT-4), the CC50 at 5 days worked out at 11800 nM. In addition, the maximal response (Emax) at 24 h, 15 µM at PXR amounted to 3%.

`O=C(NCc1ccc(F)c(Cl)c1F)c1cn2c(c(O)c1=O)C(=O)N1[C@@H]3C[C@H]([C@@H]1C2)C(F)(F)C3` [Compound 58, (1R,4R,12aR)-N-(3-chloro-2,4-difluorobenzyl)-2,2-difluoro-7-hydroxy-6,8-dioxo-1,2,3,4,6,8,12,12a-octahydro-1,4-methanodipyrido[1,2-a:1′,2′-d]pyrazine-9-carboxamide] showed a CC50 at 5 days in “in vitro” (CC50 nM in MT-4) of 7690 nM. This compound also returned an Emax at 24 h, 15 µM at PXR of 1%.

As to `O=C(NCc1c(F)cc(F)cc1F)c1cn2c(c(O)c1=O)C(=O)N1[C@@H]3C[C@@H]([C@H](F)C3)[C@@H]1C2` [Compound 59, (1R,2R,4R,12aR)-2-fluoro-7-hydroxy-6,8-dioxo-N-(2,4,6-trifluorobenzyl)-1,2,3,4,6,8,12,12a-octahydro-1,4-methanodipyrido[1,2-a:1′,2′-d]pyrazine-9-carboxamide], the CC50 at 5 days in the data set “in vitro” (CC50 nM in MT-4) is 22200 nM. At PXR, the maximal response (Emax) at 24 h, 15 µM is 4%.

In “in vitro” (CC50 nM in MT-4), `O=C(NCc1cccc(Cl)c1Cl)c1cn2c(c(O)c1=O)C(=O)N1[C@H]3CC[C@H](C3)[C@@H]1C2` [Compound 60, (1R,4S,12aR)-N-(2,3-dichlorobenzyl)-7-hydroxy-6,8-dioxo-1,2,3,4,6,8,12,12a-octahydro-1,4-methanodipyrido[1,2-a:1′,2′-d]pyrazine-9-carboxamide] gave a CC50 at 5 days of 3310 nM. At PXR, the maximal effect (Emax) at 24 h, 15 µM was 3%.

Turning to `O=C(NCc1ccc(F)c(Cl)c1F)c1cn2c(c(O)c1=O)C(=O)N1[C@H]3CC[C@H](C3)[C@H]1C2` [Compound 61, (1R,4S,12aS)-N-(3-chloro-2,4-difluorobenzyl)-7-hydroxy-6,8-dioxo-1,2,3,4,6,8,12,12a-octahydro-1,4-methanodipyrido[1,2-a:1′,2′-d]pyrazine-9-carboxamide], in the data set “in vitro” (CC50 nM in MT-4), the CC50 at 5 days stood at 25900 nM. Moreover, at PXR, the maximal response (Emax) at 24 h, 15 µM was found to be 1%.

In the data set “in vitro” (CC50 nM in MT-4), `O=C(NCc1ccc(F)c(F)c1)c1cn2c(c(O)c1=O)C(=O)N1[C@H]3CC[C@H](C3)[C@@H]1C2` [Compound 66, (1R,4S,12aR)-N-(3,4-difluorobenzyl)-7-hydroxy-6,8-dioxo-1,2,3,4,6,8,12,12a-octahydro-1,4-methanodipyrido[1,2-a:1′,2′-d]pyrazine-9-carboxamide] yielded a CC50 at 5 days of 11800 nM. In addition, the Emax at 24 h, 15 µM at PXR was 0%.

The compound `O=C(NCc1ccc(F)cc1C(F)(F)F)c1cn2c(c(O)c1=O)C(=O)N1[C@H]3CC[C@H](C3)[C@@H]1C2` [Compound 67, (1R,4S,12aR)-N-(4-fluoro-2-(trifluoromethyl)benzyl)-7-hydroxy-6,8-dioxo-1,2,3,4,6,8,12,12a-octahydro-1,4-methanodipyrido[1,2-a:1′,2′-d]pyrazine-9-carboxamide] registered a CC50 at 5 days in the data set “in vitro” (CC50 nM in MT-4) of 2980 nM. The compound also gave a maximal effect (Emax) at 24 h, 15 µM on PXR of 0%.

In the data set “in vitro” (CC50 nM in MT-4), `O=C(NCc1ccc(F)cc1Cl)c1cn2c(c(O)c1=O)C(=O)N1[C@H]3CC[C@H](C3)[C@@H]1C2` [Compound 68, (1R,4S,12aR)-N-(2-chloro-4-fluorobenzyl)-7-hydroxy-6,8-dioxo-1,2,3,4,6,8,12,12a-octahydro-1,4-methanodipyrido[1,2-a:1′,2′-d]pyrazine-9-carboxamide] gave a CC50 at 5 days of 4180 nM. The same compound showed a maximal effect (Emax) at 24 h, 15 µM on PXR of 6%.

As for `O=C(NCc1ccc(F)c(Cl)c1F)c1cn2c(c(O)c1=O)C(=O)N1[C@H]3CC[C@H](C3)[C@@H]1C2` [Compound 69, (1R,4S,12aR)-N-(3-chloro-2,4-difluorobenzyl)-7-hydroxy-6,8-dioxo-1,2,3,4,6,8,12,12a-octahydro-1,4-methanodipyrido[1,2-a:1′,2′-d]pyrazine-9-carboxamide], in the data set “in vitro” (CC50 nM in MT-4), the CC50 at 5 days worked out at 4770 nM. At PXR, this compound gave an Emax at 24 h, 15 µM of 5%.

`Cc1cccc(CNC(=O)c2cn3c(c(O)c2=O)C(=O)N2[C@H]4CC[C@H](C4)[C@@H]2C3)c1F` [Compound 70, (1R,4S,12aR)-N-(2-fluoro-3-methylbenzyl)-7-hydroxy-6,8-dioxo-1,2,3,4,6,8,12,12a-octahydro-1,4-methanodipyrido[1,2-a:1′,2′-d]pyrazine-9-carboxamide] registered a CC50 at 5 days in “in vitro” (CC50 nM in MT-4) of 8410 nM. Besides, at PXR, the Emax at 24 h, 15 µM was 10%.
